Data from patent US8092789B1, “Indian meal moth attractant” (The United States of America, as represented by the …, priority 2009, dated 2012).

System: Plodia interpunctella adult females
Assay: flight tunnel bioassay of attraction (upwind progress score)
Format: in vivo
Parameters: key to Score (flight tunnel bioassay): 0.25 per quarter line crossed; final 0.25 for contacting test subject
Settings: for Score (flight tunnel bioassay): day 22 Plodia females, ten females per test, observed ten minutes, 0.25 per quarter line crossed and for contact
Procedure: All tests were conducted in a clear, acrylic flight chamber 75 cm (L), 22 cm (W), 24 cm (H). Room air was pushed through the chamber with a 115 volt, 0.35 Amp motor-driven roller fan. Air speed was maintained at 0.4 m/sec. The chamber was positioned horizontally on a table in a walk-in environmental chamber maintained at 30° C. and 65% R.H. The only light was provided by a 25 Watt red filtered incandescent bulb centrally positioned 90 cm above tunnel floor and providing 9.0 Lux at the floor center.
Insects used were laboratory reared Plodia interpuctella. Ten 4-day old adult females from a general rearing box were selected and transferred into a 7 dram screened plastic vial for each test. Tests were performed only during the first four hours of the scotophase. Test subjects consisted of either natural products held in a glass Petri dish (Kimax, 5 cm diameter) or liquid volatiles pipetted onto a filter paper disc (Whatman #3, 2.3 cm) held off the floor by a plastic disc (5 cm diameter). These were placed upwind. A test began when the vial containing the moths was placed on the floor down-wind and the lid of the vial was removed. Distance between vial and test material was 62 cm. […] A final 0.25 was scored for actually contacting the test subject. Individual moths were tested only once.
Volatiles from natural products were collected for twenty-four hours by passing commercial, compressed nitrogen through a 150 cm^3 glass collection chamber (Analytical Research Systems) connected by tubing to an inert filter trap of 20 mg SuperQ (Alltech Associates). The collected volatiles were eluted with 150 ul dichloromethane and then bioassayed in the flight tunnel and analyzed by GC-MS. The SuperQ filter traps were rinsed with 200 ul dichloromethane immediately before each use.

`CCCCCCOC(C)=O` [hexyl acetate] was tested, and the “Score (flight tunnel bioassay)” value (Table 1) was 3.60 and the “Score (flight tunnel bioassay)” value (Table 2) was 3.60.
For `CC1=CC[C@H]2[C@H]3[C@@H]1[C@]2(C)CC[C@H]3C(C)C` [a-copaene], the “Score (flight tunnel bioassay)” value (Table 1) was 3.07 and the “Score (flight tunnel bioassay)” value (Table 2) was 3.07.
In the case of `CC1(C)C2CCC1(C)C(O)C2` (stereo not drawn) [borneol], the “Score (flight tunnel bioassay)” value (Table 1) is reported as 2.83 and the “Score (flight tunnel bioassay)” value (Table 2) is reported as 2.83.
`CCCCCC=CCCC(=O)OCC` [ethyl 4-decenoate] was tested, and the “Score (flight tunnel bioassay)” value (Table 1) was 3.50 and the “Score (flight tunnel bioassay)” value (Table 2) was 3.50.
With `CCC/C=C/CO` [trans-2-hexen-1-ol] the “Score (flight tunnel bioassay)” value (Table 1) was 3.00 and the “Score (flight tunnel bioassay)” value (Table 2) was 3.00.
In the case of `CCOc1cc(C=O)ccc1O` [ethyl vanillin], the “Score (flight tunnel bioassay)” value (Table 1) is reported as 2.63 and the “Score (flight tunnel bioassay)” value (Table 2) is reported as 2.63.
In the case of `Cc1ccc(C(C)C)cc1` [cymene], the “Score (flight tunnel bioassay)” value (Table 1) is reported as 3.00 and the “Score (flight tunnel bioassay)” value (Table 2) is reported as 3.00.
With `C=CC(=C)CCC=C(C)C` [myrcene] the “Score (flight tunnel bioassay)” value (Table 1) was 2.95 and the “Score (flight tunnel bioassay)” value (Table 2) was 2.95.
For `CCCCCCCCCCC` [undecane], the attractiveness alone (dilutions in dichloromethane, FIG. 3) was “unattractive alone”.
With `CCCCCCCC(=O)OC` [methyl octanoate] the “Score (flight tunnel bioassay)” value (Table 1) was 2.91 and the “Score (flight tunnel bioassay)” value (Table 2) was 2.91.
`CCCCC(C)=O` [2-hexanone] was tested, and the “Score (flight tunnel bioassay)” value (Table 1) was 3.63 and the “Score (flight tunnel bioassay)” value (Table 2) was 3.63.
